# pEC50: −log10 of the molar value.
# Molecular target: T1, human FXR (Homo sapiens, UniProt Q96RI1)
# T1 construct: expressed in transfected cells; host or cells: HEK293 cells stably carrying a 5xGal4-response-element firefly luciferase reporter, transiently transfected with the pcDNA3.1-Gal4-FXR plasmid
# T1 sequence (Q96RI1 262-486 limits assumed): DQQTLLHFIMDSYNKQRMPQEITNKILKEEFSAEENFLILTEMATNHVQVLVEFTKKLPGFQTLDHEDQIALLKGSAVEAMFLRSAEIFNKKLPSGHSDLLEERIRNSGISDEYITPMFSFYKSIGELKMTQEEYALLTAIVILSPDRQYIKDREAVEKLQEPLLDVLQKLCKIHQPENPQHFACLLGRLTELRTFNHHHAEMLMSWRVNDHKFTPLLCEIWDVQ
# Test: transient human FXR/Gal4-luciferase reporter assay
# Type: cell-based
# Conditions: Gal4-hFXR reporter in HEK293 cells; relative to 8 μM GW-4064; read-out: FXR EC50
# In short: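 HEK293 cells stably carrying a 5×Gal4-response-element firefly luciferase reporter, transiently transfected with a CMV-driven Gal4 DNA-binding domain–human FXR ligand-binding domain fusion, were treated overnight at 37 °C with serially diluted compounds. Luminescence was read by Steady-Glo; DMSO background was subtracted and signal expressed as percent of the 8 μM GW-4064 response.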
row,SMILES,pEC50
1,CCOc1cc(C(=O)O)ncc1N1CCC2(CC1)CC(=Cc1c(-c3ccccc3C(F)(F)F)noc1C1CC1)C2 [Example 141],6.35
2,CCOc1cc(C(N)=O)ncc1N1CCC2(CC1)CC(=Cc1c(-c3ccccc3C(F)(F)F)noc1C1CC1)C2 [Example 142],6.72
3,CCOc1cc(C(N)=O)ncc1N1CCC2(CC1)CC(Cc1c(-c3ccccc3C(F)(F)F)noc1C1CC1)C2 [Example 144],6.49
4,"O=C(O[C@@H]1O[C@H](C(=O)O)[C@@H](O)[C@H](O)[C@H]1O)c1cc(C(F)(F)F)c2cc(N3CCC4(CC3)CC(Cc3c(-c5ccccc5C(F)(F)F)noc3C3CC3)C4)ccc2n1 [Example 145, (2S,3S,4S,5R,6S)-6-((6-(2-((5-Cyclopropyl-3-(2-(trifluoromethyl)phenyl)isoxazol-4-yl)methyl)-7-azaspiro[3.5]nonan-7-yl)-4-(trifluoromethyl)quinoline-2-carbonyl)oxy)-3,4,5-trihydroxytetrahydro-2H-pyran-2-carboxylic acid]",7.44
5,CCOc1cc(C(N)=O)ncc1N1CCC2(CC1)CC(=Cc1c(-c3c(Cl)cncc3Cl)noc1C1CC1)C2 [Example 146],6.95
6,CC(O)Cc1cc(C(=O)O)nc2ccc(N3CCC4(CC3)CC(Cc3c(-c5ccccc5C(F)(F)F)noc3C3CC3)C4)cc12 (stereo not drawn) [Example 147],6.80
7,O=C(O)c1cc(OCC(F)F)c2cc(N3CCC4(CC3)CC(=Cc3c(-c5ccccc5C(F)(F)F)noc3C3CC3)C4)ccc2n1 [Example 148],8.40
8,O=C(O)c1cc(OCC(F)F)c2cc(N3CCC4(CC3)CC(Cc3c(-c5ccccc5C(F)(F)F)noc3C3CC3)C4)ccc2n1 [Example 149],8.22
9,O=C(O)c1cc(F)c2nc(N3CCC4(CC3)CC(=Cc3c(-c5c(Cl)cncc5Cl)noc3C(F)(F)F)C4)sc2c1 [Example 150],6.96
10,O=C(O)c1cc(OC2CCOC2)c2cc(N3CCC4(CC3)CC(Cc3c(-c5ccccc5C(F)(F)F)noc3C3CC3)C4)ccc2n1 (stereo not drawn) [Example 151],7.92
11,O=C(O)c1cc(O[C@H]2CCOC2)c2cc(N3CCC4(CC3)CC(Cc3c(-c5ccccc5C(F)(F)F)noc3C3CC3)C4)ccc2n1 [Example 152],8.22
12,O=C(O)c1cc(C(F)(F)F)c2cc(N3CCC4(CC3)CC(=Cc3c(-c5c(Cl)cncc5Cl)noc3C(F)(F)F)C4)ccc2n1 [Example 153],7.59
13,O=C(O)c1cc(CO)c2cc(N3CCC4(CC3)CC(Cc3c(-c5ccccc5C(F)(F)F)noc3C3CC3)C4)ccc2n1 [Example 154],6.49
14,COCc1onc(-c2c(Cl)cncc2Cl)c1C=C1CC2(CCN(c3nc4c(F)cc(C(=O)O)cc4s3)CC2)C1 [Example 155],6.92
15,O=C(O)c1ncc(N2CCC3(CC2)CC(Cc2c(-c4ccccc4C(F)(F)F)noc2C2CC2)C3)cc1C(F)(F)F [Example 156],5.78
16,O=C(O)c1ncc(N2CCC3(CC2)CC(=Cc2c(-c4ccccc4C(F)(F)F)noc2C2CC2)C3)cc1C(F)(F)F [Example 157],5.61
17,COCc1onc(-c2c(Cl)cncc2Cl)c1C=C1CC2(CCN(c3ccc4nc(C(=O)O)cc(C(F)(F)F)c4c3)CC2)C1 [Example 158],7.48
18,C=Cc1cncc(Cl)c1-c1noc(C2CC2)c1C=C1CC2(CCN(c3nc4c(F)cc(C(=O)O)cc4s3)CC2)C1 [Example 159],6.46
19,C=Cc1cncc(Cl)c1-c1noc(C2CC2)c1C=C1CC2(CCN(c3ccc4nc(C(=O)O)cc(C(F)(F)F)c4c3)CC2)C1 [Example 160],7.43
20,COc1cc(C(=O)O)nc2ccc(N3CCC4(CC3)CC(=Cc3c(-c5c(Cl)cncc5Cl)noc3C(F)(F)F)C4)cc12 [Example 161],7.57
21,COCCOc1cc(C(=O)O)nc2ccc(N3CCC4(CC3)CC(=Cc3c(-c5c(Cl)cncc5Cl)noc3C(F)(F)F)C4)cc12 [Example 162],7.43
22,O=C(O)c1cc(C(F)(F)F)cc(N2CCC3(CC2)CC(Cc2c(-c4ccccc4C(F)(F)F)noc2C2CC2)C3)n1 [Example 163],5.90
23,O=C(O)c1cc(OC2CCC2)c2cc(N3CCC4(CC3)CC(=Cc3c(-c5c(Cl)cncc5Cl)noc3C(F)(F)F)C4)ccc2n1 [Example 164],7.96
24,C=Cc1cncc(C=C)c1-c1noc(C2CC2)c1C=C1CC2(CCN(c3nc4c(F)cc(C(=O)O)cc4s3)CC2)C1 [Example 165],5.77
25,CCc1cncc(Cl)c1-c1noc(C2CC2)c1C=C1CC2(CCN(c3ccc4nc(C(=O)O)cc(C(F)(F)F)c4c3)CC2)C1 [Example 166],7.52
26,O=C(O)c1cc(C(F)(F)F)c2cc(N3CCC4(CC3)CC(=Cc3c(-c5ccccc5C(F)(F)F)noc3C(F)(F)F)C4)ccc2n1 [Example 167],7.33

row,SMILES,pEC50
1,COc1cc(C(=O)O)nc2ccc(N3CCC4(CC3)CC(=Cc3c(-c5ccccc5C(F)(F)F)noc3C(F)(F)F)C4)cc12 [Example 168],7.64
2,O=C(O)c1cc(F)c2nc(N3CCC4(CC3)CC(=Cc3c(-c5ccccc5C(F)(F)F)noc3C(F)(F)F)C4)sc2c1 [Example 169],6.19
3,N#Cc1cnc(N2CCC3(CC2)CC(Cc2c(-c4c(Cl)cccc4Cl)noc2C2CC2)C3)s1 [Example 170],5.92
4,NC(=O)c1cc(OC2CCC2)c2cc(N3CCC4(CC3)CC(Cc3c(-c5ccccc5C(F)(F)F)noc3C3CC3)C4)ccc2n1 [Example 171],6.35
5,"CN(C)C(=O)c1cc(OC2CCC2)c2cc(N3CCC4(CC3)CC(Cc3c(-c5ccccc5C(F)(F)F)noc3C3CC3)C4)ccc2n1 [Example 172, 4-Cyclobutoxy-6-(2-((5-cyclopropyl-3-(2-(trifluoromethyl)phenyl)isoxazol-4-yl)methyl)-7-azaspiro[3.5]nonan-7-yl)-N,N-dimethylquinoline-2-carboxamide]",7.16
6,O=C(NC1CC1)c1cc(OC2CCC2)c2cc(N3CCC4(CC3)CC(Cc3c(-c5ccccc5C(F)(F)F)noc3C3CC3)C4)ccc2n1 [Example 173],5.86
7,O=C(O)c1ccc(S(=O)(=O)N2CCC3(CC2)CC(Cc2c(-c4c(Cl)cccc4Cl)noc2C2CC2)C3)cc1 [Example 174],6.27
8,COc1cc([N+](=O)[O-])ccc1S(=O)(=O)N1CCC2(CC1)CC(Cc1c(-c3c(Cl)cccc3Cl)noc1C1CC1)C2 [Example 175],5.82
9,CC(=O)Nc1ncc(S(=O)(=O)N2CCC3(CC2)CC(Cc2c(-c4c(Cl)cccc4Cl)noc2C2CC2)C3)s1 [Example 176],6.08
10,NC(=O)c1cc(C(F)(F)F)c2cc(N3CCC4(CC3)CC(Cc3c(-c5ccccc5C(F)(F)F)noc3C3CC3)C4)ccc2n1 [Example 177],5.65
11,CN(C)C(=O)c1cc(C(F)(F)F)c2cc(N3CCC4(CC3)CC(Cc3c(-c5ccccc5C(F)(F)F)noc3C3CC3)C4)ccc2n1 [Example 178],6.81
12,"CC(=O)N1CCc2cc(N3CCC4(CC3)CC(=Cc3c(-c5ccccc5OC(F)(F)F)noc3C3CC3)C4)ccc2C1 [Example 179, 1-(6-(2-((5-Cyclopropyl-3-(2-(trifluoromethoxy)phenyl)isoxazol-4-yl)methylene)-7-azaspiro[3.5]nonan-7-yl)-3,4-dihydroisoquinolin-2(1H)-yl)ethan-1-one]",5.80
13,"NC(=O)N1CCc2cc(N3CCC4(CC3)CC(=Cc3c(-c5ccccc5OC(F)(F)F)noc3C3CC3)C4)ccc2C1 [Example 180, 6-(2-((5-Cyclopropyl-3-(2-(trifluoromethoxy)phenyl)isoxazol-4-yl)methylene)-7-azaspiro[3.5]nonan-7-yl)-3,4-dihydroisoquinoline-2(1H)-carboxamide]",5.85
14,O=C(c1cc(OC2CCC2)c2cc(N3CCC4(CC3)CC(Cc3c(-c5ccccc5C(F)(F)F)noc3C3CC3)C4)ccc2n1)N1CCOCC1 [Example 181],7.36
15,COCCN(C)C(=O)c1cc(OC2CCC2)c2cc(N3CCC4(CC3)CC(Cc3c(-c5ccccc5C(F)(F)F)noc3C3CC3)C4)ccc2n1 [Example 182],7.62
16,CCN(CC)C(=O)c1cc(OC2CCC2)c2cc(N3CCC4(CC3)CC(Cc3c(-c5ccccc5C(F)(F)F)noc3C3CC3)C4)ccc2n1 [Example 183],7.29
17,CCN(C)C(=O)c1cc(OC2CCC2)c2cc(N3CCC4(CC3)CC(Cc3c(-c5ccccc5C(F)(F)F)noc3C3CC3)C4)ccc2n1 [Example 184],7.43
18,O=C(c1cc(OC2CCC2)c2cc(N3CCC4(CC3)CC(Cc3c(-c5ccccc5C(F)(F)F)noc3C3CC3)C4)ccc2n1)N1CC(F)(F)C1 [Example 186],5.71
19,O=C(c1cc(OC2CCC2)c2cc(N3CCC4(CC3)CC(Cc3c(-c5ccccc5C(F)(F)F)noc3C3CC3)C4)ccc2n1)N1CCC1 [Example 187],6.37
20,O=C(c1cc(OC2CCC2)c2cc(N3CCC4(CC3)CC(Cc3c(-c5ccccc5C(F)(F)F)noc3C3CC3)C4)ccc2n1)N1CCCC1 [Example 188],7.12
21,O=C(c1cc(OC2CCC2)c2cc(N3CCC4(CC3)CC(Cc3c(-c5ccccc5C(F)(F)F)noc3C3CC3)C4)ccc2n1)N1CCCCC1 [Example 189],7.47
22,O=C(c1cc(OC2CCC2)c2cc(N3CCC4(CC3)CC(Cc3c(-c5ccccc5C(F)(F)F)noc3C3CC3)C4)ccc2n1)N1CCC(O)CC1 [Example 190],7.96
23,CN(C)C(=O)c1cc(C(F)(F)F)c2cc(N3CCC4(CC3)CC(=Cc3c(-c5ccccc5C(F)(F)F)noc3C(F)(F)F)C4)ccc2n1 [Example 191],6.51
24,CN(C)C(=O)c1cc(F)c2nc(N3CCC4(CC3)CC(=Cc3c(-c5c(Cl)cncc5Cl)noc3C(F)(F)F)C4)sc2c1 [Example 192],6.17
25,O=C(O)c1ccc2cc(N3CCC4(CC3)CC(=Cc3c(-c5ccccc5C(F)(F)F)noc3C(F)(F)F)C4)ccc2n1 [Example 193],6.30

# Source: patent US11370785B2, “Multicyclic compounds as farnesoid X receptor modulators” (BRISTOL-MYERS SQUIBB COMPANY, priority 2017, dated 2022)
